The source of these data is PubChem BioAssay (NCI).

Each structure is given as a SMILES string.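 Five compound concentrations were applied to cells in 96-well plates for 48 hours; endpoints were derived by simple linear interpolation of the resulting dose-response curve. GI50: concentration for 50% inhibition of growth. TGI: concentration producing complete growth inhibition.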 Where only a bound is given, the exact number is not on record here.

Test systems include RPMI-8226 leukemia; COLO 205 colon; A549 NSCLC; NCI-H226 lung; SN12C renal; LOX IMVI melanoma; HOP-92 NSCLC; HL-60(TB) leukemia; NCI-H23 lung; NCI-H460 lung.
Holding throughout (test): inhibition of tumour cell growth, NCI panel, 48 h

As for `CN1CCN(Cc2ccc(NC(=O)c3cncc(C#Cc4cnc(N)c5cnccc45)c3)cc2C(F)(F)F)CC1`, the GI50 in the assay with RPMI-8226 leukemia is 0.216 µM; with COLO 205 colon, 0.0982 µM; in the assay on A549 NSCLC, 0.511 µM; in the assay on NCI-H226 lung, 0.115 µM; in the assay with SN12C renal, 0.167 µM; in the assay with LOX IMVI melanoma it was 0.0745 µM. For the same molecule, the GI50 in the assay on HOP-92 NSCLC is 0.0725 µM; in the assay with HL-60(TB) leukemia, 0.0926 µM; in the assay on NCI-H23 lung it was 0.189 µM; with NCI-H460 lung it was 0.218 µM. Further, the TGI in the assay on RPMI-8226 leukemia stood at 3.25 µM; in the assay on COLO 205 colon it was 6 µM; in the assay with A549 NSCLC, 7.79 µM; with NCI-H226 lung, 4.54 µM; in the assay on SN12C renal it was 5.86 µM; with LOX IMVI melanoma, 0.26 µM. For the same molecule, the TGI in the assay with HOP-92 NSCLC amounted to 0.287 µM; in the assay on HL-60(TB) leukemia, 0.585 µM; in the assay on NCI-H23 lung it was 3.81 µM; in the assay on NCI-H460 lung it was 3.31 µM.
Regarding `CN(C)CCNC(=O)NC[C@H]1CC[C@@H]2[C@H](O1)c1cc(C(F)(F)F)ccc1N[C@H]2c1ccccc1`, the GI50 with RPMI-8226 leukemia was 0.163 µM; in the assay with COLO 205 colon it was 0.0476 µM; in the assay on A549 NSCLC it was 0.175 µM; in the assay on NCI-H226 lung, 15.1 µM; in the assay with SN12C renal it was 0.455 µM; in the assay with LOX IMVI melanoma, 2.53 µM. Further, the GI50 in the assay with HOP-92 NSCLC was 1.25 µM; with HL-60(TB) leukemia it was 0.154 µM; in the assay with NCI-H23 lung, 0.495 µM; with NCI-H460 lung it was 0.14 µM. Besides, the TGI was 8.48 µM in the assay with RPMI-8226 leukemia; 0.236 µM in the assay with COLO 205 colon; 17.4 µM with A549 NSCLC; 43.4 µM with NCI-H226 lung; above 51.7 µM in the assay on SN12C renal; 27.3 µM with LOX IMVI melanoma. In addition, the TGI in the assay on HOP-92 NSCLC was 29 µM; in the assay on HL-60(TB) leukemia it was 0.672 µM; with NCI-H23 lung, above 48.3 µM; with NCI-H460 lung it was 11.8 µM.
Consider `C[CH2][Sn]([CH2]C)([O]C(=O)c1ccc(OC)c(OC)c1OC)[O]C(=O)c1ccc(OC)c(OC)c1OC`, for which the GI50 in the assay with RPMI-8226 leukemia was 22.7 µM; in the assay with COLO 205 colon it was 65.1 µM; in the assay with A549 NSCLC, above 100 µM; with NCI-H226 lung, 19.7 µM; in the assay with SN12C renal, 99.8 µM; in the assay on LOX IMVI melanoma it was 27.2 µM. For the same molecule, the GI50 was 21.8 µM in the assay with HOP-92 NSCLC, above 63.5 µM in the assay with HL-60(TB) leukemia, 33 µM with NCI-H23 lung and above 100 µM in the assay with NCI-H460 lung. Further, the TGI was 72.2 µM in the assay on RPMI-8226 leukemia; above 100 µM in the assay on COLO 205 colon; above 100 µM with A549 NSCLC; 46 µM in the assay with NCI-H226 lung; above 100 µM in the assay on SN12C renal; above 69.7 µM in the assay with LOX IMVI melanoma. Also, the TGI in the assay with HOP-92 NSCLC was 49.6 µM; in the assay with HL-60(TB) leukemia, above 100 µM; with NCI-H23 lung, above 67.1 µM; in the assay on NCI-H460 lung it was above 100 µM.
`C#Cc1cccc(NC(=O)c2ccc(NC(=O)CCl)cc2)c1`: the GI50 with RPMI-8226 leukemia is 14.7 µM; in the assay on COLO 205 colon, 23.7 µM; in the assay on A549 NSCLC, above 82.5 µM; with NCI-H226 lung it was 48.7 µM; with SN12C renal, 18.6 µM; with LOX IMVI melanoma, 11.2 µM. The GI50 with HOP-92 NSCLC was 11.4 µM; with HL-60(TB) leukemia it was 15.7 µM; in the assay on NCI-H23 lung, 14.9 µM; in the assay on NCI-H460 lung it was 29.2 µM. The TGI is 44.1 µM in the assay on RPMI-8226 leukemia; above 82.5 µM in the assay on COLO 205 colon; above 82.5 µM in the assay on A549 NSCLC; above 82.5 µM with NCI-H226 lung; above 82.5 µM with SN12C renal; 23.5 µM in the assay on LOX IMVI melanoma. Further, the TGI in the assay with HOP-92 NSCLC was 26.4 µM; in the assay on HL-60(TB) leukemia it was 45 µM; with NCI-H23 lung, 38.4 µM; in the assay on NCI-H460 lung it was above 82.5 µM.
Consider `COc1cccc(Nc2nccc(-c3cnn4ncccc34)n2)c1`, for which the GI50 was 0.0621 µM in the assay with RPMI-8226 leukemia; 0.0433 µM in the assay on COLO 205 colon; 0.0698 µM with A549 NSCLC; 0.0546 µM with NCI-H226 lung; 0.0837 µM in the assay with SN12C renal; 0.0275 µM in the assay with LOX IMVI melanoma. The GI50 was 0.0392 µM with HOP-92 NSCLC, 0.0553 µM in the assay on HL-60(TB) leukemia, 0.0532 µM in the assay with NCI-H23 lung and 0.0754 µM in the assay with NCI-H460 lung. Also, the TGI in the assay on RPMI-8226 leukemia was 0.166 µM; with COLO 205 colon, 0.0988 µM; in the assay with NCI-H226 lung, 0.18 µM; in the assay with SN12C renal, above 25 µM; with LOX IMVI melanoma it was above 25 µM; in the assay on HOP-92 NSCLC, 0.157 µM. Also, the TGI was 0.163 µM in the assay with HL-60(TB) leukemia, 0.201 µM in the assay on NCI-H23 lung and above 25 µM with NCI-H460 lung.
Consider `O=C1NC(c2cccc(OCc3ccccc3)c2)Nc2ccccc21` (centres undefined), for which the TGI in the assay with RPMI-8226 leukemia is 1.07 µM; with COLO 205 colon, 2.64 µM; in the assay with A549 NSCLC, above 49.6 µM; in the assay on NCI-H226 lung, 2.44 µM; in the assay on SN12C renal it was 30.5 µM; with LOX IMVI melanoma, 17.5 µM. In addition, the TGI is above 100 µM in the assay on HOP-92 NSCLC, below 0.0428 µM in the assay on HL-60(TB) leukemia, above 100 µM in the assay with NCI-H23 lung and 22.9 µM in the assay on NCI-H460 lung.
Regarding `Cc1cc(Cl)cc(Cc2cc(Cl)cc(C)c2O)c1O`, the GI50 in the assay with RPMI-8226 leukemia was 1.58 µM; in the assay on COLO 205 colon, 5.72 µM; in the assay on A549 NSCLC, 2.91 µM; with NCI-H226 lung it was 4.17 µM; with SN12C renal, 2.27 µM; in the assay with LOX IMVI melanoma it was 3 µM. Moreover, the GI50 in the assay on HOP-92 NSCLC is 0.397 µM; with HL-60(TB) leukemia, 2.94 µM; in the assay on NCI-H23 lung it was 1.9 µM; in the assay with NCI-H460 lung, 3.14 µM. The TGI in the assay on RPMI-8226 leukemia turned out to be 9.35 µM; with COLO 205 colon it was 18.8 µM; in the assay with A549 NSCLC it was 11.1 µM; with NCI-H226 lung, 20.1 µM; in the assay with SN12C renal, 9.7 µM; in the assay on LOX IMVI melanoma, 8.9 µM. The TGI in the assay with HOP-92 NSCLC came to 2.83 µM; with HL-60(TB) leukemia it was 8.09 µM; in the assay with NCI-H23 lung, 8.09 µM; with NCI-H460 lung it was 10.5 µM.
